≈ marks a conversion by molar mass, not a printed value. Calls of active or inactive are those of the source. No cut-off for these calls is given here.
Key:
[1] = Antitumor activity against human myeloid leukemia cells xenografted mouse at 3 mg/kg, iv for 14 days; type: functional, Leukemia cell
[2] = tested on: Pseudomonas aeruginosa; test: Antimicrobial activity against Pseudomonas aeruginosa MB2824; type: functional
[3] = tested on: Bacillus subtilis; test: Antimicrobial activity against Bacillus subtilis MB964; type: functional
[4] = tested on: L1210; test: Cytotoxicity against mouse L1210 cells assessed as cell lysis after 24 hrs by trypan blue assay; type: functional, cell-based
[5] = tested on: Proteus vulgaris; test: Antimicrobial activity against Proteus vulgaris MB838; type: functional
[6] = tested on: Pectobacterium atrosepticum; test: Antimicrobial activity against Erwinia atroseptica MB1159; type: functional
[7] = tested on: Staphylococcus aureus; test: Antimicrobial activity against methicillin-resistant Staphylococcus aureus COL MB5393; type: functional, organism-based
[8] = tested on: L1210; test: Cytotoxicity against mouse L1210 cells assessed as cell viability by trypan blue assay; type: functional, cell-based
[9] = tested on: Enterococcus faecium; test: Antimicrobial activity against Enterococcus faecium MB5572; type: functional
[10] = tested on: L1210; test: Cytotoxicity against mouse L1210 cells by MTT assay; type: functional, cell-based
[11] = tested on: Escherichia coli; test: Antimicrobial activity against Escherichia coli MB1418; type: functional
[12] = tested on: Staphylococcus aureus; test: Antimicrobial activity against Staphylococcus aureus MB108; type: functional
[13] = tested on: P388; test: In vivo antitumor activity against mouse P388 cells assessed as increase in life span at 5 mg/kg, ip for 5 days; type: functional

For `CC1=C2C(=O)C(C)(C)C=C2C(=O)[C@](C)(O)C12CC2` [DEHYDROILLUDIN M], which Activity [1] is on record?
Its Activity is 75%.

For `C=C1C(=O)C2=C(C[C@](C)(C(=O)O)C2)[C@](C)(O)C12CC2` [ILLUDINIC ACID], which MIC [2] is on record?
Its MIC is over 125 µg/mL.

And the MIC [3]?
Its MIC is 16 µg/mL (≈ 61 µM).

And the Activity [4]?
The Activity was “inactive”.

And the MIC [5]?
The MIC was over 125 µg/mL.

What about the MIC [6] of the same compound?
Its MIC is over 125 µg/mL.

And the MIC [7]?
The MIC was 16 µg/mL (≈ 61 µM).

What about the IC50 [8] of the same compound?
The IC50 was 10 µg/mL (≈ 38.1 µM).

And the MIC [9]?
The MIC was over 125 µg/mL.

And the IC50 [10]?
The IC50 was 15 µg/mL (≈ 57.2 µM).

And the MIC [11]?
Its MIC is 125 µg/mL (≈ 477 µM).

What about the MIC [12] of the same compound?
The MIC was 1 µg/mL (≈ 3.81 µM).

Which Activity [4] does the source give for `COc1cccc2c1C(=O)c1c(O)c3c(c(O)c1C2=O)C[C@@](O)(C(=O)CO)C[C@@H]3O[C@H]1C[C@H](N)[C@H](O)[C@H](C)O1` [DOXORUBICIN] here?
Its Activity is “inactive”.

What about the IC50 [7] of the same compound?
Its IC50 is 16 µg/mL (≈ 29.4 µM).

And the IC50 [8]?
Its IC50 is under 0.1 µg/mL.

What about the IC50 [10] of the same compound?
Its IC50 is 0.2 µg/mL (≈ 0.368 µM).

Which Activity [4] does the source give for `CN[C@H](CC(C)C)C(=O)N[C@H]1C(=O)N[C@@H](CC(N)=O)C(=O)N[C@H]2C(=O)N[C@H]3C(=O)N[C@H](C(=O)N[C@H](C(=O)O)c4cc(O)cc(O)c4-c4cc3ccc4O)[C@H](O)c3ccc(c(Cl)c3)Oc3cc2cc(c3O[C@@H]2O[C@H](CO)[C@@H](O)[C@H](O)[C@H]2O[C@H]2C[C@](C)(N)[C@H](O)[C@H](C)O2)Oc2ccc(cc2Cl)[C@H]1O` [VANCOMYCIN] here?
Its Activity is “inactive”.

And the IC50 [8]?
The IC50 was over 1000 µg/mL.

What about the IC50 [10] of the same compound?
The IC50 was over 1000 µg/mL.

For `CC1=C2C(=C[C@@](C)(CO)[C@@H]2O)C(=O)[C@](C)(O)C12CC2`, which Activity [13] is on record?
The Activity was “inactive”.

Which Activity ([13]; route intraperitoneal) does the source give for `CC1=C2CC(C)(C)C=C2C(=O)[C@](C)(O)C12CC2` [DEOXYILLUDIN M] here?
The Activity was 24%.

— ChEMBL document CHEMBL1145706, “Illudinic acid, a novel illudane sesquiterpene antibiotic” (J Nat Prod, 1997)
